Reference: patent publication US12325710B2, “Substituted 1,2,3,4,5,6-hexahydroazepino[4,5-b]indoles for treating brain disorders” (priority 2019, dated 2025)
Entries after “also recorded” stand apart in the source; their conditions may differ.

Legend:
[1] = test system: 5HT2A sensor; assay: 5HT2A sensor assay (sLight1.3s HEK293T cells), agonist and antagonist mode; type: cell-based; settings: agonist mode; for activation of 5HT2A sensor, agonist mode: 10 μM of compound, FIG. 16
Method: 5HT2A Sensor Assays. HEK293T (ATCC) 5HT2A sensor stable line (sLight1.3s) was generated via lentiviral transduction of HIV-EF1α-sLight1.3 and propagated from a single colony. Lentivirus was produced using 2nd generation lentiviral plasmids pHIV-EF1α-sLight1.3, pHCMV-G, and pCMV-deltaR8.2.
For the screening of the 41 compounds, sLight1.3s cells were plated in 96-well plates at a density of 40000 24-hours prior to imaging. On the day of imaging, compounds solubilized in DMSO were diluted from the 100 mM stock solution to working concentrations of 1 mM, 100 μM and 1 μM with a DMSO concentration of 1%. Immediately prior to imaging, cells growing in DMEM (Gibco) were washed 2× with HBSS (Gibco) and in agonist mode 180 μL of HBSS or in antagonist mode 160 μL of HBSS was added to each well after the final wash. For agonist mode, images were taken before and after the addition of the 20 μL compound working solution into the wells containing 180 μL HBSS. This produced final compound concentrations of 100 μM, 10 μM and 100 nM with a DMSO concentration of 0.1%. For antagonist mode, images were taken before and after addition of 20 μL of 900 nM 5-HT and again after 20 μL of the compound working solutions to produce final concentrations of 100 nM for 5HT and 100 μM, 10 μM and 100 nM for the compounds with a DMSO concentration of 0.1%. Each compound was tested in triplicates (3 wells) for each concentration (100 μM, 10 μM and 100 nM). Additionally, within each plate, 100 nM 5HT and 0.1% DMSO controls were also imaged.
For each well, the cellular membrane where the 5HT2A sensor is targeted was autofocused using the adaptive focus controls and 5 images from different regions within the well were taken with each image processed from a 2×2 binning.
For data processing, the membranes from each image was segmented and analyzed using a custom algorithm written in MATLAB producing a single raw fluorescence intensity value. For each well the 5 raw fluorescence intensity values generated from the 5 images were averaged and the change in fluorescence intensity (dFF) was calculated as: dFF=(Fsat−Fapo)/Fapo
For both agonist and antagonist modes, the fluorescence intensity values before compound addition in HBSS only were used as the Fapo values while the fluorescence intensity values after compound addition were used as the Fsat values.
For agonist mode, data are as percent activation relative to 5HT, where 0 is the average of the DMSO wells and 100 is the average of the 100 μM 5HT wells.

[2] = biological target: 5-HT2B receptors (Homo sapiens, UniProt P41595); assay: 5-HT2B Gq-mediated calcium flux functional assay; type: cell-based
Method: Serotonin and Opioid Receptor Functional Assays. Functional assay screens at 5-HT and opioid receptors were performed in parallel using the same compound dilutions and 384-well format high-throughput assay platforms. Assays assessed activity at all human isoforms of the receptors, except where noted for the mouse 5-HT2A receptor. Receptor constructs in pcDNA vectors were generated from the Presto-Tango GPCR library with minor modifications. All compounds were serially diluted in drug buffer (HBSS, 20 mM HEPES, pH 7.4 supplemented with 0.1% bovine serum albumin and 0.01% ascorbic acid) and dispensed into 384-well assay plates using a FLIPR^TETRA (Molecular Devices). Every plate included a positive control such as 5-HT (for all 5-HT receptors), DADLE (DOR), salvinorin A (KOR), and DAMGO (MOR). For measurements of 5-HT2A, 5-HT2B, and 5-HT2C Gq-mediated calcium flux function, HEK Flp-In 293 T-Rex stable cell lines (Invitrogen) were loaded with Fluo-4 dye for one hour, stimulated with compounds and read for baseline (0-10 seconds) and peak fold-over-basal fluorescence (5 minutes) at 25° C. on the FLIPR^TETRA. For measurement of 5-HT6 and 5-HT7a functional assays, Gs-mediated cAMP accumulation was detected using the split-luciferase GloSensor assay in HEKT cells measuring luminescence on a Microbeta Trilux (Perkin Elmer) with a 15 min drug incubation at 25° C. For 5-HT1A, 5-HT1B, 5-HT1F, MOR, KOR, and DOR functional assays, Gi/o-mediated cAMP inhibition was measured using the split-luciferase GloSensor assay in HEKT cells, conducted similarly as above, but in combination with either 0.3 μM isoproterenol (5-HT1A, 5-HT1B, 5-HT1F) or 1 μM forskolin (MOR, KOR, and DOR) to stimulate endogenous cAMP accumulation. For measurement of 5-HT1D, 5-HT1E, 5-HT4, and 5-HT5A functional assays, β-arrestin2 recruitment was measured by the Tango assay utilizing HTLA cells expressing TEV fused-β-arrestin2, as described previously with minor modifications. […]

[3] = test system: C57BL/6J mice; assay: Head-twitch response (HTR) assay; settings: intraperitoneal; fumarate salts; 5-MeO-DMT 10 mg/kg as positive control
[4] = test system: mouse primary sensory cortex; assay: In vivo spine dynamics, transcranial 2-photon imaging; settings: 24 h after i.p. dose; TBG 50 mg/kg, DOI 10 mg/kg
Method: In Vivo Spine Dynamics. Male and female Thy1-GFP-M line mice (n=5 per condition) were purchased from The Jackson Laboratory (JAX #007788) and maintained in UCSC animal facilities according to an IACUC approved protocol. In vivo transcranial two-photon imaging and data analysis were performed as previously described. Briefly, mice were anesthetized with an intraperitoneal (i.p.) injection of a mixture of ketamine (87 mg/kg) and xylazine (8.7 mg/kg). A small region of the exposed skull was manually thinned down to 20-30 μm for optical access. Spines on apical dendrites in mouse primary sensory cortices were imaged using a Bruker Ultima IV two-photon microscope equipped with an Olympus water-immersion objective (40×, NA=0.8) and a Ti:Sapphire laser (Spectra-Physics Mai-Tai, excitation wavelength 920 nm). Images were taken at a zoom of 4.0 (pixel size 0.143×0.143 μm) and Z-step size of 0.7 μm. The mice received an i.p. injection (injection volume=5 mL/kg) of DOI (10 mg/kg) or TBG (50 mg/kg) immediately after they recovered from anesthesia given prior to the first imaging session. The animals were re-imaged 24 h after drug administration. Dendritic spine dynamics were analyzed using ImageJ. Spine formation and elimination were quantified as percentages of spine number on day 0.

[5] = test system: larval zebrafish expressing GCaMP5; assay: Seizurogenic potential in larval zebrafish expressing GCaMP5; type: in vivo; settings: 200 μM; PTZ positive control
Method: Transgenic larval zebrafish expressing GCaMP5G were immobilized in agarose, treated with compounds, and imaged over time. The known seizure-inducing compound PTZ was used as a positive control. All compounds were treated at 200 μM (n=2 per condition).

[6] = test system: C57/BL6J mice; assay: Forced swim test (FST); type: in vivo, mouse; settings: 24 h after drug administration; TBG 50 mg/kg, ketamine 3 mg/kg i.p.
Method: Forced Swim Test (FST). Male C57/BL6J mice (9-10 weeks old at time of experiment, n=10 per condition) were obtained from the Jackson Lab and housed 4-5 mice/cage in a UCD vivarium following an IACUC approved protocol. After 1 week in the vivarium each mouse was handled for approximately 1 minute by a experimenter for 3 consecutive days leading up to the first FST. All experiments were carried out by the same experimenter who performed handling. During the FST, mice underwent a 6 min swim session in a clear Plexiglas cylinder 40 cm tall, 20 cm in diameter, and filled with 30 cm of 24±1° C. water. Fresh water was used for every mouse. After handling and habituation to the experimenter, drug-naïve mice first underwent a pretest swim to more reliably induce a depressive phenotype in the subsequent FST sessions. Immobility scores for all mice were determined after the pre-test and mice were randomly assigned to treatment groups to generate groups with similar average immobility scores to be used for the following two FST sessions. […] Experiments were video-recorded and manually scored offline. Immobility time—defined as passive floating or remaining motionless with no activity other than that needed to keep the mouse's head above water—was scored for the last 4 min of the 6 min trial.

5-HT2B receptors, sequence (P41595 whole entry, canonical isoform): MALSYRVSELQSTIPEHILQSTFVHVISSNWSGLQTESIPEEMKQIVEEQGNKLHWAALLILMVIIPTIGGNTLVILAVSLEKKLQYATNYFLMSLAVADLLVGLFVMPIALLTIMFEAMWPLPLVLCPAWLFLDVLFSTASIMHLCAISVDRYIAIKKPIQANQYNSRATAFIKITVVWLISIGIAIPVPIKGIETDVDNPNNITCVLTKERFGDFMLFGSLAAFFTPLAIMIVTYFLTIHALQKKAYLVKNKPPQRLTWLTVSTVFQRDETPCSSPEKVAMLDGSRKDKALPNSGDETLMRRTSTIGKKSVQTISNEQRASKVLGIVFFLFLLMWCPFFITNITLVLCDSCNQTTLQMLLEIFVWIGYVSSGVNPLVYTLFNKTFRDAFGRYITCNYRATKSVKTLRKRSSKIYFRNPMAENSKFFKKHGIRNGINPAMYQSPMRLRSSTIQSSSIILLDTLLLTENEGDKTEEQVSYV

Compound: COc1ccc2[nH]cc(CCN(C)C)c2c1 [Compound 5-MeO-DMT, 5-methoxy-N,N-dimethyltryptamine, reference compound]
- activation of 5HT2A sensor, agonist mode [1]: activate the 5HT2A sensor assay in agonist mode
- activation of 5HT2A sensor, agonist mode, dose response ([1]; FIG. 15): activate a 5HT2A sensor assay in agonist mode
- activity mode at 5-HT2B receptors [2]: agonists of 5-HT2B receptors
- hallucinogenic potential (head-twitch response) [3]: robust HTR

Compound: COc1cc(CC(C)N)c(OC)cc1I (stereo not drawn) [DOI, 2,5-dimethoxy-4-iodoamphetamine, reference compound]
- activation of 5HT2A sensor, agonist mode [1]: activate the 5HT2A sensor assay in agonist mode
- spine elimination [4]: no effect on spine elimination; also recorded: Neither TBG nor DOI affected spine elimination
- spine formation [4]: increased spine formation

Compound: C1CCc2nnnn2CC1 [PTZ, pentylenetetrazole, reference compound]
- seizure induction (neural activity) [5]: excessive neural activity

Compound: CNC1(c2ccccc2Cl)CCCCC1=O (stereo not drawn) [ketamine, reference compound]
- immobility in FST [6]: significantly reduced immobility
